Where a name gives a salt, the structure may show the parent alone.
What was measured:
MCH1 receptor = MCH1 receptor (UniProt P97639); assay: Displacement of [125I]-Tyr-S36057 binding to MCH1 receptors on brain membrane preparations; settings: rat and/or mouse brain membranes, 50 pM [125I]-Tyr-S36057, room temperature, 30 minutes; read-out: IC50 (concentration that inhibits 50% of the specific binding)
Description: The compounds according to the invention underwent pharmacological tests. Their affinity towards the receptor 1 of Melamin-Concentrating Hormone (MCH), MCH1 was determined by these means.
The tests consisted in measuring the in vitro activity of the compounds of the invention on the MCH1 receptors of MCH.
The measurement of the affinity of the compounds of the invention for the MCH receptors was performed by studying the displacement of the binding of a radiolabelled derivative of MCH to the MCH1 receptors. This study was performed on rat and/or mouse brain membrane preparations according to the protocol described below.
In anticipation of the binding studies, the brains are diluted in HEPES buffer 25 mM (pH: 7.4) containing MgCl2 5 mM, CaCl2 1 mM, homogenized using a Polytron blender for 3 times 20 seconds (speed 25), and are then ultracentrifuged at 22 000 rpm and at +4° C. for 30 minutes. […]
The incubation is performed at room temperature for 30 minutes, and then stopped by rapid addition of ice-cold HEPES buffer 25 mM (pH: 7.4) supplemented with 0.2% bovine serum albumin, and by filtration through GF/B glass fibre filters preincubated for 2 hours in an aqueous 0.1% polyethyleneimine solution. The radioactivity retained on the filters is measured using a Gamma scintillation counter. The non-specific binding is determined in the presence of 1 μM of non-radiolabelled S36057. […]

Compound | melting point [°C] | IC50 (MCH1 receptor) [nM]
COc1ccc(OC)c(-c2nnc(NC3CCN(Cc4ccc5ncsc5c4)CC3)c3cc(OC)ccc23)c1 (as salt: salt) (hydrate or solvate) [Compound 135, N-[1-(1,3-benzothiazol-6-ylmethyl)piperidin-4-yl]-4-(2,5-dimethoxyphenyl)-7-methoxyphthalazin-1-amine] | 193 | –
COc1ccc(-c2nnc(NC3CCN(Cc4ccc5ccccc5c4)CC3)c3ccc(C)cc23)cc1 (as salt: salt) (hydrate or solvate) [Compound 142, 4-(4-methoxyphenyl)-6-methyl-N-[1-(naphthalen-2-ylmethyl)piperidin-4-yl]phthalazin-1-amine] | 134 | –
COc1ccc(-c2nnc(NC3CCN(Cc4ccc5ccccc5c4)CC3)c3cc(OC)ccc23)c(OC)c1.Cl.Cl (hydrate or solvate) | 228 | –
COc1cc(OC)cc(-c2nnc(NC3CCN(Cc4ccc5ccccc5c4)CC3)c3cc(OC)ccc23)c1.Cl.Cl (hydrate or solvate) | 240 | –
COc1ccc2c(-c3cccnc3)nnc(NC3CCN(Cc4ccc5ccccc5c4)CC3)c2c1.Cl.Cl.Cl (hydrate or solvate) | 225 | –
COc1ccc2c(-c3ccc(-c4ccccc4)cc3)nnc(NC3CCN(Cc4ccc5ccccc5c4)CC3)c2c1.Cl.Cl (hydrate or solvate) | 292 | –
COc1ccc2c(-c3ccc(C)c(C)c3)nnc(NC3CCN(Cc4ccc5ccccc5c4)CC3)c2c1.Cl.Cl (hydrate or solvate) | 210 | –
COc1ccc(OC)c(-c2nnc(NC3CCN(Cc4ccc5occc5c4)CC3)c3cc(OC)ccc23)c1.Cl.Cl (hydrate or solvate) | 250 | –
COc1ccc(OC)c(-c2nnc(NC3CCN(Cc4ccc5c(c4)OCO5)CC3)c3cc(OC)ccc23)c1.Cl.Cl (hydrate or solvate) | 272 | –
COc1ccc2c(COc3ccccc3)nnc(NC3CCN(Cc4ccc5ccccc5c4)CC3)c2c1.Cl.Cl (hydrate or solvate) | 239 | –
Cl.Cl.c1ccc(-c2ccc3c(-c4ccccc4)nnc(NC4CCN(Cc5ccc6ccccc6c5)CC4)c3c2)cc1 (hydrate or solvate) | 224 | –
COc1ccc(-c2nnc(NC3CCN(Cc4ccc5ccccc5c4)CC3)c3cc(Cl)ccc23)cc1.Cl.Cl (hydrate or solvate) | 230 | –
COc1ccc2c(-c3ccc(Br)cc3)nnc(NC3CCN(Cc4ccc5ccccc5c4)CC3)c2c1.Cl.Cl (hydrate or solvate) | 246 | –
COCc1nnc(NC2CCN(Cc3ccc4c(c3)OCO4)CC2)c2cc(OC)ccc12.Cl.Cl (hydrate or solvate) | 284 | –
COc1ccc(-c2nnc(NC3CCN(Cc4ccc5ccccc5c4)CC3)c3cc(OC)cc(OC)c23)cc1.Cl.Cl (hydrate or solvate) | 212 | –
COc1cc(-c2ccccc2)c2cnnc(NC3CCN(Cc4ccc5ccccc5c4)CC3)c2c1.Cl.Cl (hydrate or solvate) | 199 | –
COCc1nnc(NC2CCN(Cc3ccc4ccccc4c3)CC2)c2cc(OC)ccc12.Cl (hydrate or solvate) | 176 | –
COc1ccc(-c2nnc(NC3CCN(C/C=C/c4ccccc4)CC3)c3cc(OC)ccc23)cc1.Cl.Cl (hydrate or solvate) | 210 | –
COc1ccc(-c2nnc(N[C@@H]3CCN(Cc4ccc5ccccc5c4)C3)c3cc(OC)ccc23)cc1.Cl.Cl (hydrate or solvate) | 254 | –
COc1ccc(OC)c(-c2nnc(NC3CCN(Cc4ccc5ccccc5c4)CC3)c3cc(OC)ccc23)c1.Cl.Cl (hydrate or solvate) | 240 | –
COc1ccc(-c2nnc(NC3CCN(Cc4ccccc4)CC3)c3cc(OC)cc(OC)c23)cc1 [Compound 11, N-(1-benzylpiperidin-4-yl)-5,7-dimethoxy-4-(4-methoxyphenyl)phthalazin-1-amine] | 168 | –
COc1cc(OC)c2c(Cc3ccccc3)nnc(NC3CCN(Cc4ccc5ccccc5c4)CC3)c2c1 [Compound 22, 4-Benzyl-5,7-dimethoxy-N-[1-(naphthalen-2-ylmethyl)piperidin-4-yl]phthalazin-1-amine] | 163 | –
COc1ccc2c(C)nnc(NC3CCN(Cc4ccc5ccccc5c4)CC3)c2c1 [Compound 95, 7-Methoxy-4-methyl-N-[1-(naphthalen-2-ylmethyl)piperidin-4-yl]phthalazin-1-amine] | 188 | –
Fc1ccc(-c2nnc(NC3CCN(Cc4ccc5ccccc5c4)CC3)c3cc(F)ccc23)cc1 [Compound 106, 7-Fluoro-4-(4-fluorophenyl)-N-[1-(naphthalen-2-ylmethyl)piperidin-4-yl]phthalazin-1-amine] | 207 | –
COc1ccc(-c2nnc(NC3CCN(Cc4ccccc4)CC3)c3cc(OC)cc(OC)c23)cc1 [Example 2, N-(1-benzylpiperidin-4-yl)-5,7-dimethoxy-4-(4-methoxyphenyl)phthalazin-1-amine] | – | 72
c1ccc(-c2ccc3c(-c4ccccc4)nnc(NC4CCN(Cc5ccc6ccccc6c5)CC4)c3c2)cc1 [Example 42, 4,7-diphenyl-N-[1-(naphthalen-2-ylmethyl)piperidin-4-yl]-phthalazin-1-amine dihydrochloride] | – | 360
COc1ccc2c(CO)nnc(NC3CCN(Cc4ccc5ccccc5c4)CC3)c2c1 [Example 48, 4-Hydroxymethyl-7-methoxy-N-[1-(naphthalen-2-ylmethyl)piperidin-4-yl]phthalazin-1-amine] | 102 | –

The next lines start with results.

melting point [°C] | Compound | IC50 (MCH1 receptor) [nM]
281 | COc1ccc(-c2nnc(NC3CCN(Cc4ccc5[nH]ccc5c4)CC3)c3cc(OC)ccc23)cc1 (as salt: salt) (hydrate or solvate) [Compound 87, N-[1-(1H-indol-5-ylmethyl)piperidin-4-yl]-7-methoxy-4-(4-methoxyphenyl)phthalazin-1-amine] | –
155 | COCc1ccc(-c2nnc(NC3CCN(Cc4ccc5ccccc5c4)CC3)c3cc(OC)ccc23)cc1 (as salt: salt) (hydrate or solvate) [Compound 88, 7-Methoxy-4-(4-methoxymethylphenyl)-N-[1-(naphthalen-2-ylmethyl)piperidin-4-yl]phthalazin-1-amine] | –
270 | COc1ccc(-c2nnc(NC3CCN(Cc4ccc(OC)c(C)c4)CC3)c3cc(OC)ccc23)cc1 (as salt: salt) (hydrate or solvate) [Compound 89, 7-methoxy-N-[1-(4-methoxy-3-methylbenzyl)piperidin-4-yl]-4-(4-methoxyphenyl)phthalazin-1-amine] | –
249 | COc1ccc(-c2nnc(NC3CCN(Cc4ccc5ncccc5c4)CC3)c3cc(OC)ccc23)cc1 (as salt: salt) (hydrate or solvate) [Compound 99, 7-methoxy-4-(4-methoxyphenyl)-N-[1-(quinolin-6-ylmethyl)piperidin-4-yl]phthalazin-1-amine] | –
161 | COc1ccc(-c2nnc(NC3CCN(Cc4ccc5c(ccn5C)c4)CC3)c3cc(OC)ccc23)cc1 (as salt: salt) (hydrate or solvate) [Compound 100, 7-methoxy-4-(4-methoxyphenyl)-N-{1-[(1-methyl-1H-indol-5-yl)methyl]piperidin-4-yl}phthalazin-1-amine] | –
278 | COc1ccc(-c2nnc(NC3CCN(Cc4ccc5cc[nH]c5c4)CC3)c3cc(OC)ccc23)cc1 (as salt: salt) (hydrate or solvate) [Compound 129, N-[1-(1H-indol-6-ylmethyl)piperidin-4-yl]-7-methoxy-4-(4-methoxyphenyl)phthalazin-1-amine] | –
277 | COc1ccc(-c2nnc(NC3CCN(Cc4ccc(Cl)cc4)CC3)c3cc(OC)ccc23)cc1.Cl.Cl (hydrate or solvate) | –
294 | COc1ccc(-c2nnc(NC3CCN(Cc4ccc(CO)cc4)CC3)c3cc(OC)ccc23)cc1.Cl.Cl (hydrate or solvate) | –
284 | COc1ccc(-c2nnc(NC3CCN(Cc4ccc(CN)cc4)CC3)c3cc(OC)ccc23)cc1.Cl.Cl.Cl (hydrate or solvate) | –
255 | COc1ccc(-c2nnc(NC3CCN(Cc4ccc(NC(C)=O)cc4)CC3)c3cc(OC)ccc23)cc1.Cl.Cl (hydrate or solvate) | –
293 | COc1ccc(-c2nnc(NC3CCN(Cc4ccc(NC=O)cc4)CC3)c3cc(OC)ccc23)cc1.Cl.Cl (hydrate or solvate) | –
293 | COc1ccc(-c2nnc(NC3CCN(Cc4ccc5oc(=O)ccc5c4)CC3)c3cc(OC)ccc23)cc1.Cl.Cl (hydrate or solvate) | –
216 | COc1ccc(CN2CCC(Nc3nnc(-c4ccc(OC)cc4)c4ccc(OC)cc34)CC2)cc1.Cl.Cl (hydrate or solvate) | –
245 | CCc1ccc(CN2CCC(Nc3nnc(-c4ccc(OC)cc4)c4ccc(OC)cc34)CC2)cc1.Cl.Cl (hydrate or solvate) | –
208 | COc1ccc(-c2nnc(NC3CCN(Cc4ccc(C(C)O)cc4)CC3)c3cc(OC)ccc23)cc1.Cl.Cl (centres unmarked) (hydrate or solvate) | –
222 | COc1ccc(-c2nnc(NC3CCN(Cc4ccc(CN5CCCC5)cc4)CC3)c3cc(OC)ccc23)cc1.Cl.Cl.Cl (hydrate or solvate) | –
218 | COc1ccc(-c2nnc(NC3CCN(Cc4ccc(CN(C)C)cc4)CC3)c3cc(OC)ccc23)cc1.Cl.Cl.Cl (hydrate or solvate) | –
235 | COc1ccc(-c2nnc(NC3CCN(Cc4ccc5c(c4)OCO5)CC3)c3cc(OC)ccc23)cc1.Cl.Cl (hydrate or solvate) | –
210 | COc1ccc(-c2nnc(NC3CCN(Cc4ccc(C)c(F)c4)CC3)c3cc(OC)ccc23)cc1 [Compound 74, N-[1-(3-fluoro-4-methylbenzyl)piperidin-4-yl]-7-methoxy-4-(4-methoxyphenyl)phthalazin-1-amine] | –
267 | COc1ccc(-c2nnc(NC3CCN(Cc4ccc5[nH]cnc5c4)CC3)c3cc(OC)ccc23)cc1 [Compound 138, N-[1-(1H-benzimidazol-5-ylmethyl)piperidin-4-yl]-7-methoxy-4-(4-methoxyphenyl)phthalazin-1-amine] | –

From patent US7423030B2, “1-amino-phthalazine derivatives, the preparation and the therapeutic use thereof” (Sanofi-Aventis, priority 2004, dated 2008)
